The values below come from US20220133894A1, “BISPHOSPHONATE-LINKED COMPOUNDS” (OREGON HEALTH & SCIENCE UNIVERSITY, priority 2019, published 2022).

SMILES strings stand for the structures.

The subject of assay [1] is MEK1/2 and ERK1/2. Briefly: Western blot of MEK1/2 and ERK1/2 phosphorylation in RANKL treated osteoclast cells. The format is cell-based, mouse. To be noted: 10 μM KBU2046, RANKL treated RAW 267.4 cells. (In general: Immunoblotting shows a protein as a band on a membrane.)
Assay [2] deals with Raf1. In words: Western blot of Raf1 phosphorylation in RANKL treated osteoclast cells. Format: cell-based, mouse. Conditions: 10 μM KBU2046, RANKL treated RAW 267.4 cells, time-dependent. The text has this: To examine this paradigm we first evaluated whether KBU2046 would inhibit Raf1 phosphorylation in osteoclasts. After treatment with RANKL, RAW 267.4 cells differentiate into mature osteoclasts. Upon maturation osteoclast become multinucleated, express tartrate resistant acid phosphatase (TRAP), and have the capacity to form actin rings that create an occluded cavity in which bone is degraded. KBU2046 inhibits phosphorylation of Raf1's activation motif in RANKL treated RAW 267.4 osteoclast cells, and does so in a time-dependent manner (FIG. 4A). In osteoclasts Raf1 is known to phosphorylate MEK1/2, in turn phosphorylating ERK1/2 (Bradley et al., J Cell Biochem 104, 1439-1451 (2008)), with the latter acting to stimulate osteoclast differentiation and bone resorptive activity (He et al., PLoS One 6, e24780 (2011); and Nakamura et al., J Bone Miner Res 18, 1198-1205 (2003)).
FIG. 4 represents the KBU2046 inhibition of osteoclast function. FIG. 4A compares effects on Raf1 activation. […] RAW 267.4 cells were plated onto Osteo Assay plates, treated with RANKL for 6 days and with KBU2046 (or vehicle for controls) as indicated and bone surface area quantified. Data are the mean±SEM (N=3 replicates) of bone surface area, expressed as the percentage of control cells; * denotes P<0.05 compared to control. […]

In assay [3] the test system is PC3-M cells. Briefly: three-day MTT cell growth assay, chemotherapy with or without KBU2046. To be noted: 10 μM KBU2046, 3 day growth assay, androgen independent PC3-M cells. Format: cell-based, human. As for the experimental part:
FIG. 1A depicts the effect of chemotherapy on the growth of androgen independent PC3-M PCa cells in vitro. Data are the mean±SEM (N=3 replicates) of cell viability in a 3 day growth assay in the presence of 10 μM KBU2046 or vehicle (control) treated with docetaxel or cabazitaxel. FIG. 1B depicts the effect of chemotherapy on the growth of androgen independent PCa cells in vivo. Mice received subcutaneous implants of PC3-M cells, were monitored until tumors were detectable (250 mm^3), and then treated daily with oral 80 mg KBU2046/kg (46) or vehicle (CO) and with weekly intraperitoneal docetaxel (doc) at 0 or 20 mg/kg, beginning on day 1, and tumor size measured. Data are mean±SEM, with N=20 mice per cohort.
To assess the impact of cytotoxic chemotherapy on PCa growth kinetics seven-day soft agar colony formation assays and three-day MTT cell growth inhibition assays were performed as described by us (Pavese et al., Cancer Lett 352, 179-186 (2014)). MTT assays were in replicates of N=3, and were repeated, soft agar assays were in replicates of N=2 and are presented as mean number of colonies, expressed as percent of untreated controls.
Background: Tetrazolium assays rely on reduction of a dye to a coloured formazan, in cell work by metabolically active cells.

The subject of assay [4] is prostate specific antigen (PSA). Briefly: PSA expression by qRT/PCR in VCaP cells. The format is cell-based, human. Here is the method: Cells were cultured in media depleted of androgen and after a washout of 72 hrs were treated with the synthetic androgen R1881, KBU2046, enzalutamide and/or vehicle (control), and resultant effects upon induction of the androgen-responsive gene, prostate specific antigen (PSA) were measured (FIG. 3A).
LNCaP or VCaP cells cultured in hormone free media were treated with R1881 (R), KBU2046 (46) and/or enzalutamide (E). (FIGS. 3A and 3B) Effects on AR-responsive gene expression. PSA expression was measured by qRT/PCR, normalized to GAPDH and expressed as a percent of control cells (N=3 replicates); * denotes P<0.05 for groups separated by bar. (FIGS. 3C and 3D) Effects on cell growth. Three day growth assays were performed. Data are the number of viable cells, expressed as % of control (N=3 replicates); * P<0.05 compared to control. (E) Effects on AR activation. Western blots of nuclear (N) and cytoplasmic (C) preparations of cell extracts were probed for AR, laminin 1 or α-tubulin. (FIGS. 3F and 3G) Effects on tumor outgrowth after androgen deprivation therapy. LNCaP/AR-luc cells were implanted subcutaneously (N=6 mice/cohort) or orthotopic (N=15 mice/cohort were implanted; N=5 yielded tumors) into castrate mice, treatment with KBU2046 began as noted, and weekly IVIS imaging performed. Data are tumor size, expressed as luminescence intensity. All data are expressed as mean±SEM.
RNA was isolated and qRT/PCR performed as previously described by us (Ding et al., J Biomol Tech 18, 321-330 (2007)). Resultant data were analyzed using the 2^−ΔΔt method (Livak et al., Methods 25, 402-408 (2001)), normalized to GAPDH, for the following primer/probe sets (ABI) PSA (Hs02576345_m1) and GAPDH (Hs99999905_m1). Assays were performed in triplicate, and were repeated.

In the case of `O=C1c2ccccc2OCC1c1ccc(F)cc1` (centres unmarked) [KBU2046, 3-(4-fluorophenyl)chroman-4-one], the “MEK1/2 and ERK1/2 phosphorylation” value in assay [1] was “inhibition”. Besides, in assay [2], the “phosphorylation of Raf1's activation motif” value is reported as “inhibits”. Moreover, the “effect of KBU2046 on the ability of docetaxel or cabazitaxel to inhibit cell growth” value in assay [3] is recorded as “did not affect”. In assay [4] (VCaP cells, R1881 treated), the “decrease of PSA expression in R1881 treated cells” value is reported as 36%. Also, in assay [4] (VCaP control cells, very low baseline), the “relative increase of PSA expression in control cells” value amounted to 14%.
